# From PMC4447944 (The Journal of Biological Chemistry, 2015)
# Tests used:
# [1] = target: T1, hABL1(pF317I) (Homo sapiens, UniProt P00519, F317I); assay: KINOMEscan; assay type: binding
# T1 construct: purchased DiscoverX (KINOMEscan platform)
# [2] = target: T2, hABL1(pQ252H) (Homo sapiens, UniProt P00519, Q252H); assay: KINOMEscan; assay type: binding
# T2 construct: purchased DiscoverX (KINOMEscan platform)
# [3] = target: T3, hALK(C1156Y) (Homo sapiens, UniProt Q9UM73, C1156Y); assay: KINOMEscan; assay type: binding
# T3 construct: purchased DiscoverX
# [4] = target: T4, hANKK1 (Homo sapiens, UniProt Q8NFD2); assay: KINOMEscan; assay type: binding
# T4 construct: purchased DiscoverX
# [5] = target: T5, hCAMK1 (Homo sapiens, UniProt Q14012); assay: KINOMEscan; assay type: binding
# T5 construct: purchased DiscoverX
# [6] = target: T6, hCLK3 (Homo sapiens, UniProt P49761); assay: KINOMEscan; assay type: binding
# T6 construct: purchased DiscoverX
# [7] = target: T7, hDCAMKL2 (Homo sapiens, UniProt Q8N568); assay: KINOMEscan; assay type: binding
# T7 construct: purchased DiscoverX (KINOMEscan platform)
# [8] = target: T8, hEGFR(L861Q) (Homo sapiens, UniProt P00533, L861Q); assay: KINOMEscan; assay type: binding
# T8 construct: purchased DiscoverX
# [9] = target: T9, hERK1 (Homo sapiens, UniProt P27361); assay: KINOMEscan; assay type: binding
# T9 construct: purchased DiscoverX
# T9 sequence (P27361 whole entry): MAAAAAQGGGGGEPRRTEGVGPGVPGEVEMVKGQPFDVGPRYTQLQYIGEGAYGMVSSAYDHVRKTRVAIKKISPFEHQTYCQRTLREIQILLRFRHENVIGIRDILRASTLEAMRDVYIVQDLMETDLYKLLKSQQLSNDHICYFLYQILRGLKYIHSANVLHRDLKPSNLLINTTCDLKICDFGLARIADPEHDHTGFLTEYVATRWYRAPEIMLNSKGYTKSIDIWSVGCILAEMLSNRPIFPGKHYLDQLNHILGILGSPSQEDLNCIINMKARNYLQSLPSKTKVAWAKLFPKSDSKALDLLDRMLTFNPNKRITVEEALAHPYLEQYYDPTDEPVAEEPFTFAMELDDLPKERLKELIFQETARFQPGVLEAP
# [10] = target: T10, hERK3 (Homo sapiens, UniProt Q16659); assay: KINOMEscan; assay type: binding
# T10 construct: purchased DiscoverX
# [11] = target: T11, hGRK7 (Homo sapiens, UniProt Q8WTQ7); assay: KINOMEscan; assay type: binding
# T11 construct: purchased DiscoverX
# [12] = target: T12, hIGF1R (Homo sapiens, UniProt P08069); assay: KINOMEscan; assay type: binding
# T12 construct: purchased DiscoverX (KINOMEscan panel)
# T12 sequence (P08069 31-1367): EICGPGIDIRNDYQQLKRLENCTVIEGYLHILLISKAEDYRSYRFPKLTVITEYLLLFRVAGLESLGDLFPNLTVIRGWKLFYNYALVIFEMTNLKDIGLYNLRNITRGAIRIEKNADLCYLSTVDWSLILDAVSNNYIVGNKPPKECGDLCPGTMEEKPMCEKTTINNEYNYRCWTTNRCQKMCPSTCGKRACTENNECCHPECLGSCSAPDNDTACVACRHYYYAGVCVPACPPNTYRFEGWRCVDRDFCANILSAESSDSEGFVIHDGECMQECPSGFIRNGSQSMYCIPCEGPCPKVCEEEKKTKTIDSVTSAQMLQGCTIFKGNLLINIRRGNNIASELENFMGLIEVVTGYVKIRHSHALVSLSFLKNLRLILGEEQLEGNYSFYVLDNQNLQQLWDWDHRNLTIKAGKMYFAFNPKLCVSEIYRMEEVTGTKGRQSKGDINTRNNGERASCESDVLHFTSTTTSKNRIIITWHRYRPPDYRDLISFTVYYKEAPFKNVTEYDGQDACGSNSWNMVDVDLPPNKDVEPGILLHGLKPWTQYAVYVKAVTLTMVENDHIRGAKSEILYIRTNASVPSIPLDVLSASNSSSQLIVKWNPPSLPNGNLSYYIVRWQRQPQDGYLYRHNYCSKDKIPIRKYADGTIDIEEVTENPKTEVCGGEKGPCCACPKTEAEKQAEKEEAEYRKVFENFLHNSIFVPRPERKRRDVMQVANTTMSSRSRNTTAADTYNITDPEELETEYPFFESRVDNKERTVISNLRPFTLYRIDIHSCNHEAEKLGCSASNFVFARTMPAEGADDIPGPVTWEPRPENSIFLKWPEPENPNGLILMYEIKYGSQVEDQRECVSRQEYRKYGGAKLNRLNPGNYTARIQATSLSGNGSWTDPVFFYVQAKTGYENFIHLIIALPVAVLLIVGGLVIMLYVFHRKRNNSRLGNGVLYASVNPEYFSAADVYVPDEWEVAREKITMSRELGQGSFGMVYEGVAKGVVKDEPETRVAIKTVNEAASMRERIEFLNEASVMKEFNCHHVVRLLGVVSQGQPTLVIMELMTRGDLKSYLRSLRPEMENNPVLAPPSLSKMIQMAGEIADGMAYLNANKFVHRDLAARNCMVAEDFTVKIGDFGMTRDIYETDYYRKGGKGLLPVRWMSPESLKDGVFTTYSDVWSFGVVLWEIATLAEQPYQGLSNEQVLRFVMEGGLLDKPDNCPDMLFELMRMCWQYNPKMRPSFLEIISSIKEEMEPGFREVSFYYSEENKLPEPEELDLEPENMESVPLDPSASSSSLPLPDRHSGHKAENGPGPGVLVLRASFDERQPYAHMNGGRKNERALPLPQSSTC
# [13] = target: T13, hIRAK3 (Homo sapiens, UniProt Q9Y616); assay: KINOMEscan; assay type: binding
# T13 construct: purchased DiscoverX (KINOMEscan panel)
# [14] = target: T14, hKIT(A829P) (Homo sapiens, UniProt P10721, A829P); assay: KINOMEscan; assay type: binding
# T14 construct: purchased DiscoverX (KINOMEscan panel)
# T14 sequence (P10721 26-976 A829P): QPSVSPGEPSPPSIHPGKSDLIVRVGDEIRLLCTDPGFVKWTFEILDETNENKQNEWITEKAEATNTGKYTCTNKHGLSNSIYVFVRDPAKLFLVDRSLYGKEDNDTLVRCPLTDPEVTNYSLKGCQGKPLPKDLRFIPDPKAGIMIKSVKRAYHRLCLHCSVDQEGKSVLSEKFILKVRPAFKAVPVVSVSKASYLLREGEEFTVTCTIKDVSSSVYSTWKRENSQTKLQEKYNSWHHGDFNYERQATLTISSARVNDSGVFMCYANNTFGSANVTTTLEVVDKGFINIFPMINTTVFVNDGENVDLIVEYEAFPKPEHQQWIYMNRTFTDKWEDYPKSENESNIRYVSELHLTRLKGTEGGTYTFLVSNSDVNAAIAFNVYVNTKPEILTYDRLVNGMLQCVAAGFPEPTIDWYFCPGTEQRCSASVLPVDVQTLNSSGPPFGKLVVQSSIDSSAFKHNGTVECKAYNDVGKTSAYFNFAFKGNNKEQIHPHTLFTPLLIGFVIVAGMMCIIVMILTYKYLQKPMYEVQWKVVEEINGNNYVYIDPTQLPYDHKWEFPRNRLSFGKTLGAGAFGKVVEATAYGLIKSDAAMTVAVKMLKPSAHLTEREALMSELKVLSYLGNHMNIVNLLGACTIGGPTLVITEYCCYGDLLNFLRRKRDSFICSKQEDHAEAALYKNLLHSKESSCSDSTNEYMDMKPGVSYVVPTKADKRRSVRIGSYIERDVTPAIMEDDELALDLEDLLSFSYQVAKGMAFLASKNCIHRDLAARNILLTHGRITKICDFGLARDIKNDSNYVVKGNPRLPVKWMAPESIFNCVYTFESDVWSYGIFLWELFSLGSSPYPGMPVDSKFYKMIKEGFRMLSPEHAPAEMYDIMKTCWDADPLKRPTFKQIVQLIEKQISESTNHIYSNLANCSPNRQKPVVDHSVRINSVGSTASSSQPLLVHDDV
# [15] = target: T15, hKIT(V559D,T670I) (Homo sapiens, UniProt P10721, T670I/V559D); assay: KINOMEscan; assay type: binding
# T15 construct: purchased DiscoverX (KINOMEscan platform)
# T15 sequence (P10721 26-976 V559D/T670I): as the sequence (P10721 26-976 A829P) above, with V534D, T645I, P804A counted along it
# [16] = target: T16, hLIMK1 (Homo sapiens, UniProt P53667); assay: KINOMEscan; assay type: binding
# T16 construct: purchased DiscoverX (KINOMEscan platform)
# T16 sequence (P53667 whole entry): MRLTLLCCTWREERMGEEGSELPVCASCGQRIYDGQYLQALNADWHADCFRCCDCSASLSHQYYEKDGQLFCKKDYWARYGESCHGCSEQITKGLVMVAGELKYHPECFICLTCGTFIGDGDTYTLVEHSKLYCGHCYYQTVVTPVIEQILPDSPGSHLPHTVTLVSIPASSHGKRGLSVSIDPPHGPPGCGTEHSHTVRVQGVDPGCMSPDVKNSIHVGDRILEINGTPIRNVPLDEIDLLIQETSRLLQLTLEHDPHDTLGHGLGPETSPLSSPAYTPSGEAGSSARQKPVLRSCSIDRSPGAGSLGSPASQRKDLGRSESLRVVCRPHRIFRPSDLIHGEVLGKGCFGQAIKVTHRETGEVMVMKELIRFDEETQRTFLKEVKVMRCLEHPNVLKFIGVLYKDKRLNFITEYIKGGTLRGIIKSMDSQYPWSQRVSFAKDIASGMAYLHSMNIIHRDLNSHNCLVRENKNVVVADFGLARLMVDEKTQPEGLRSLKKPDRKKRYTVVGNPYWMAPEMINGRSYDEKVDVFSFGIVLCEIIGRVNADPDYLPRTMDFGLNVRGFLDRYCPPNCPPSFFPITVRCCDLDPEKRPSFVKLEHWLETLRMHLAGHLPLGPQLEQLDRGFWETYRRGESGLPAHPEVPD
# [17] = target: T17, hLIMK2 (Homo sapiens, UniProt P53671); assay: KINOMEscan; assay type: binding
# T17 construct: purchased DiscoverX (KINOMEscan platform)
# [18] = target: T18, hLZK (Homo sapiens, UniProt O43283); assay: KINOMEscan; assay type: binding
# T18 construct: purchased DiscoverX (KINOMEscan platform)
# T18 sequence (O43283 whole entry): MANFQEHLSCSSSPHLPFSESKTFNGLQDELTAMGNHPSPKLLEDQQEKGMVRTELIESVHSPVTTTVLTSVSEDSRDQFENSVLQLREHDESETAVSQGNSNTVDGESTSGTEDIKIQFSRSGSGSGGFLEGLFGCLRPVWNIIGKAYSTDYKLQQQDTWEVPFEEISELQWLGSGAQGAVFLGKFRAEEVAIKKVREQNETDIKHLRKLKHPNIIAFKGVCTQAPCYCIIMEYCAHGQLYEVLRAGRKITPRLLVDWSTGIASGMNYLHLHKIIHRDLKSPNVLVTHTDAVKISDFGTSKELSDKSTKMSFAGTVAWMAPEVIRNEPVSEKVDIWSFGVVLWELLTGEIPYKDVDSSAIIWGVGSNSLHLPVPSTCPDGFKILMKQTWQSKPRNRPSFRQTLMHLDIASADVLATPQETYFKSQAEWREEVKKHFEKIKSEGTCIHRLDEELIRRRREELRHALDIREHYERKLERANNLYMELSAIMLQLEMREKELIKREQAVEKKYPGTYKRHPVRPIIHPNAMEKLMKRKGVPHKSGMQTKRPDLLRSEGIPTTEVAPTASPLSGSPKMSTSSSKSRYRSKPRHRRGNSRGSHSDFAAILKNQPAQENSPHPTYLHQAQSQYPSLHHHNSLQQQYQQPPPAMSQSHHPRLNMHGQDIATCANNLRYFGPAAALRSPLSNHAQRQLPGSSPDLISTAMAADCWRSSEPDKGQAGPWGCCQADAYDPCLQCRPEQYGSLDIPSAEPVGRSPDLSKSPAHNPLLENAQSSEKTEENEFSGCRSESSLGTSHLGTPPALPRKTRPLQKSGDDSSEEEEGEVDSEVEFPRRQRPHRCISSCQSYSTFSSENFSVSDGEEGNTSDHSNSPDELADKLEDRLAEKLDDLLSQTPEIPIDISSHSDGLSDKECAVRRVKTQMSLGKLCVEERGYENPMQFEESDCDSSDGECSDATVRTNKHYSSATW
# [19] = target: T19, hMAP3K1 (Homo sapiens, UniProt Q13233); assay: KINOMEscan; assay type: binding
# T19 construct: purchased DiscoverX (KINOMEscan platform)
# [20] = target: T20, hMINK (Homo sapiens, UniProt Q8N4C8); assay: KINOMEscan; assay type: binding
# T20 construct: purchased DiscoverX
# [21] = target: T21, hRIOK1 (Homo sapiens, UniProt Q9BRS2); assay: KINOMEscan; assay type: binding
# T21 construct: purchased DiscoverX (KINOMEscan platform)
# T21 sequence (Q9BRS2 whole entry): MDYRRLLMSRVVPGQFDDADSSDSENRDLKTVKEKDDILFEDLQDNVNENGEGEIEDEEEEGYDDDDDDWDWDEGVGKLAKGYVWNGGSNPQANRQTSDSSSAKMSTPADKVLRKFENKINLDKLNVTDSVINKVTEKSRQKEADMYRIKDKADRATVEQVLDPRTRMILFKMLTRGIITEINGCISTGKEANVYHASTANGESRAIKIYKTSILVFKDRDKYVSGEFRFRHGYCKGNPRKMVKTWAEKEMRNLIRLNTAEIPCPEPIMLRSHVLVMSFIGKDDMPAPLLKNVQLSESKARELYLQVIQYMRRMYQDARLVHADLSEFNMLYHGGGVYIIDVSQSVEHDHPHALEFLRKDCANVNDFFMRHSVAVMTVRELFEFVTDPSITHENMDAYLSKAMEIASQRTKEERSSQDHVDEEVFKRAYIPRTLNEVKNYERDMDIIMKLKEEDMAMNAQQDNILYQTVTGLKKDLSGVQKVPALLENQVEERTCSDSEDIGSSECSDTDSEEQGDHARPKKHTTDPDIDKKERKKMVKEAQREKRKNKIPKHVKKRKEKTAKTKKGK
# [22] = target: T22, hRPS6KA5(Kin.Dom.1-N-term) (Homo sapiens, UniProt O75582); assay: KINOMEscan; assay type: binding
# T22 construct: hRPS6KA5(Kin.Dom.1-N-term); purchased DiscoverX (KINOMEscan platform)
# [23] = target: T23, hSRC (Homo sapiens, UniProt P12931); assay: KINOMEscan; assay type: binding
# T23 construct: purchased DiscoverX (KINOMEscan platform)
# [24] = target: T24, hWEE1 (Homo sapiens, UniProt P30291); assay: KINOMEscan; assay type: binding
# T24 construct: purchased DiscoverX
# [25] = target: T25, hLXRβ (Homo sapiens, UniProt P55055); assay: Nuclear hormone receptor assay (Eurofins-CEREP); details: read-out: Relative IC50
# T25 construct: Eurofins-CEREP
# [26] = target: T26, hADRα1A (Homo sapiens, UniProt P35348); assay: Calcium Mobilization Agonist (Eurofins-CEREP); details: @ 13.3 μM
# T26 sequence (P35348 1-466): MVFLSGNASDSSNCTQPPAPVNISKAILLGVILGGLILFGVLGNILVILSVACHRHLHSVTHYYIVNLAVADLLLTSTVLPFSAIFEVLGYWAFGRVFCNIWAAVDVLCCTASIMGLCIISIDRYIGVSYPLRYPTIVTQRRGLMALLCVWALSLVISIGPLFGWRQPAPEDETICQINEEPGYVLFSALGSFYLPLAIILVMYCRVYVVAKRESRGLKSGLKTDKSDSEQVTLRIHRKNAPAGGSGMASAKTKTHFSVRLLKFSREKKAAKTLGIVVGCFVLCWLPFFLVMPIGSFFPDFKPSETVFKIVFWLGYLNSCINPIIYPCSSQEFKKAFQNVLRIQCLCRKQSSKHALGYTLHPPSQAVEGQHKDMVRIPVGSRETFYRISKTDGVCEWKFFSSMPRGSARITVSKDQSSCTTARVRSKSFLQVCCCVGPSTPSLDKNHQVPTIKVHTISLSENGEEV
compound,measurement,setting,value
"Cc1cn(CCN2CCN(c3ccccc3-c3cc(C#N)cc(C(=O)NCCCN4CCCC4)c3)CC2)c2ccccc12 [LLY-507, 3-cyano-5-{2-[4-[2-(3-methylindol-1-yl)ethyl]piperazin-1-yl]-phenyl}-N-[(3-pyrrolidin-1-yl)propyl]benzamide]",IC50,[1],> 20 µM
same,IC50,[2],> 20 µM
same,IC50,[3],> 20 µM
same,IC50,[4],> 20 µM
same,IC50,[5],> 20 µM
same,IC50,[6],> 20 µM
same,IC50,[7],> 20 µM
same,IC50,[8],> 20 µM
same,IC50,[9],> 20 µM
same,IC50,[10],> 20 µM
same,IC50,[11],> 20 µM
same,IC50,[12],> 20 µM
same,IC50,[13],> 20 µM
same,IC50,[14],> 20 µM
same,IC50,[15],> 20 µM
same,IC50,[16],> 20 µM
same,IC50,[17],> 20 µM
same,IC50,[18],> 20 µM
same,IC50,[19],> 20 µM
same,IC50,[20],> 20 µM
same,IC50,[21],> 20 µM
same,IC50,[22],> 20 µM
same,IC50,[23],> 20 µM
same,IC50,[24],> 20 µM
same,IC50,[25],> 10 µM
same,"% Effect, Stimulation",[26],-1.9%
